The values below come from patent US20150284375A1 (AJINOMOTO CO., INC., priority 2012, published 2015).

For the test, the target named is T1, human TRPA1 (Homo sapiens, UniProt O75762).
T1 construct: expressed in transfected cells; host or cells: Human embryonic kidney-derived 293T cells, transiently transfected with the pcDNA3.1/zeo(+) human TRPA1 plasmid
T1 sequence (O75762 whole entry): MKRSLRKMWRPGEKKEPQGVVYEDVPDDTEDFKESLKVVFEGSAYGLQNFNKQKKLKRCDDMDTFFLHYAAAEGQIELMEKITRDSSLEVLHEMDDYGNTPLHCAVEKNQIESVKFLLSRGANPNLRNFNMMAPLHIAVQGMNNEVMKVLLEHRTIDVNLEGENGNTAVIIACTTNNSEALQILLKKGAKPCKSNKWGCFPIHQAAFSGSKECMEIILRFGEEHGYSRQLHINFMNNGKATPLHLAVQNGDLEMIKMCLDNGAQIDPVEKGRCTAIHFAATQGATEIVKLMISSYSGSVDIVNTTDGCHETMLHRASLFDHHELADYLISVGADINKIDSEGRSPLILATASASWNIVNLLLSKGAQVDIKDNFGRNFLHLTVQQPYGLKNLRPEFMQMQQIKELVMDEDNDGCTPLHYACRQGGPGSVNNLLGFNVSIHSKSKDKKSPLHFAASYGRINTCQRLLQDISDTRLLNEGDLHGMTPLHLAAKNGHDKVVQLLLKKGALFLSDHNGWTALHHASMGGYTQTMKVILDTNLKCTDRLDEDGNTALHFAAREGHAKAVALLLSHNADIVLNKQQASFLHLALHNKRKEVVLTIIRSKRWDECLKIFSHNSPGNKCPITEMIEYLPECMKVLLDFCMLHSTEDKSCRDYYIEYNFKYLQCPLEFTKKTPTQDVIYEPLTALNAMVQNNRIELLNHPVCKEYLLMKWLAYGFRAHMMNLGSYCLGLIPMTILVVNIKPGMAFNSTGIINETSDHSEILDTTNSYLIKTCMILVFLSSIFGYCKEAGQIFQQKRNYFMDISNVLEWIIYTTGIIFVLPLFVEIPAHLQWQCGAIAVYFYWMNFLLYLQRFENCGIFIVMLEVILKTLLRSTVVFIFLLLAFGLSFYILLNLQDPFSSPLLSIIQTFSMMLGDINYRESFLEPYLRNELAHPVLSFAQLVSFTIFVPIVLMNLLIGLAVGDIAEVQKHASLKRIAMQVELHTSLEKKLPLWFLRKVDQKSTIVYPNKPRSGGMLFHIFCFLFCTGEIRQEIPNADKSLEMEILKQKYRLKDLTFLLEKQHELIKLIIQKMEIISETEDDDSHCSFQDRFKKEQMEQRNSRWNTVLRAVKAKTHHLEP
The test is described as follows: Measurement of TRPA1 antagonist activity (intracellular calcium increase, FLIPR, allylisothiocyanate stimulation). The format is cell-based. Conditions: 293T cells transfected with human TRPA1; allylisothiocyanate 20 μM; concentration for 50% inhibitory rate; read-out: antagonism hTRPA1. An excerpt:
Measurement of TRPA1 Antagonist Activity
Human TRPA1 Expression Plasmid
As cDNA encoding human TRPA1 (GenBank accession No. […]), a commercially available product was purchased (manufactured by Kazusa DNA Research Institute, clone No.: pFN21AB7348, item No.: FHC07217). Using this as a template, full-length human TRPA1 gene was amplified using the primer sequences shown below, by reaction using DNA polymerase (manufactured by Stratagene, trade name: PfuUltra High-Fidelity DNA Polymerase).
A recognition site (underlined) of restriction enzyme HindIII was added to the 5′ side, and XbaI site (underlined) was added to the 3′ side, and GTT of the template sequence was changed to termination codon TAG (bold). The obtained double stranded DNA was enzyme-digested with HindIII and XbaI, and introduced into a multicloning site of expression plasmid pcDNA3.1/zeo(+) (manufactured by Invitrogen) to give a human TRPA1 expression plasmid.
Human embryonic kidney-derived 293T cells were cultured in Dulbecco's Modified Eagle Medium containing 10% fetal bovine serum, 10 unit penicillin, and 10 μg streptomycin, plated on a petri dish having a diameter of 10 cm at 3×10^6 cells, and cultured for 24 hr. A medium containing a reduced amount of serum (manufactured by Invitrogen, trade name: OPTI-MEM, 600 μL), a gene insertion reagent (manufactured by Mirus Bio, trade name: Mirus TransIT-293, 18 μL), and human TRPA1 expression plasmid (6 μg) were mixed, the total amount of the mixture was added to the cells on the petri dish to allow for gene transfer. The cells were recovered about 8 hr later, plated on a poly-D-lysine coated 384 well black/clear bottom plate at 7,500-12,000 cells/well, and cultured overnight.
Measurement of Intracellular Calcium Increase
The 384 well plate was recovered, and the medium was removed. A calcium-bonded fluorescent indicator (manufactured by Molecular Device, trade name: Calcium4 Assay Kit, 40 μL) dissolved in assay buffer (1×HBSS, 20 mM HEPES, pH 7.2) was added, and the cells were stained in a 37° C. incubator for 1 hr. The cells were taken out at room temperature and left standing for 15 min or more. A test substance (10 μL) was added by a 384 well type dispenser, and the mixture was incubated at room temperature for 10 min. Then, allylisothiocyanate (12.5 μL) at a final concentration of 20 μM was added by a fluorescence imaging plate reader (manufactured by Molecular Device, FLIPR), and changes in the relative fluorescence intensity were measured for 5 min.
Test Substance Preparation
The test substance was dissolved in dimethyl sulfoxide and serially diluted with an assay buffer containing 0.1% bovine serum albumin (1×HBSS, 20 mM HEPES, pH 7.2) to a 5-fold concentration of the evaluation concentration. Allylisothiocyanate, which is a known TRPA1 activator, was dissolved in dimethyl sulfoxide to 100 mM, and further diluted 5-fold (100 μM) of the final concentration, like the test substance.
Calculation of Antagonist Activity
Under the test substance-free conditions, the maximum variation range of the fluorescence intensity before and after allylisothiocyanate stimulation was defined to be 100% activity rate, and the variation range before and after buffer stimulation was defined as 0% activity rate. The activity rate on addition of the test substance was determined, and the numerical value obtained by subtracting the activity rate from 100 was defined to be an inhibitory rate. 1050, which is the concentration of the test substance necessary for reaching the 50% inhibitory rate, was calculated from the sigmoid approximate curve by a spreadsheet software Excel-Fit.
A general note: A change in cytosolic calcium serves as a functional read-out for many receptors and channels.
On to `O=C(NCc1cccc(Oc2cccc(F)c2)c1)[C@@H]1CCCN1S(=O)(=O)c1ccc(Cl)s1` [Example 22, (2S)-1-(5-chlorothiophene-2-sulfonyl)-N-{[3-(3-fluoro-phenoxy)phenyl]methyl}pyrrolidine-2-carboxamide], for which the IC50 was 56 nM.

With `O=C(NCc1cccc(Oc2ccccc2C(F)(F)F)c1)[C@@H]1CCCN1S(=O)(=O)c1ccc(Cl)s1` [Example 23, (2S)-1-(5-chlorothiophene-2-sulfonyl)-N-({3-[2-(trifluoro-methyl)phenoxy]phenyl}methyl)pyrrolidine-2-carboxamide], the IC50 was found to be 380 nM.

On to `O=C(NCc1ccc(Oc2cccc(C(F)(F)F)c2)c(Cl)c1)[C@@H]1CCCN1S(=O)(=O)c1ccc(Cl)s1` [Example 24, (2S)-1-(5-chlorothiophene-2-sulfonyl)-N-({3-chloro-4-[3-(trifluoro-methyl)phenoxy]phenyl}methyl)pyrrolidine-2-carboxamide], for which the IC50 was determined as 140 nM.

For `O=C(NCc1ccc(Oc2cccc(C(F)(F)F)c2)c(F)c1)[C@@H]1CCCN1S(=O)(=O)c1ccc(Cl)s1` [Example 25, (2S)-1-(5-chlorothiophene-2-sulfonyl)-N-({3-fluoro-4-[3-(trifluoro-methyl)phenoxy]phenyl}methyl)pyrrolidine-2-carboxamide], the IC50 is 130 nM.

In the case of `O=C(NCc1c(F)cc(Oc2cccc(C(F)(F)F)c2)cc1F)[C@@H]1CCCN1S(=O)(=O)c1ccc(Cl)s1` [Example 26, (2S)-1-(5-chlorothiophene-2-sulfonyl)-N-({2,6-difluoro-4-[3-(trifluoro-methyl)phenoxy]phenyl}methyl)pyrrolidine-2-carboximide], the IC50 was 930 nM.

Take `O=C(NCc1ccc(F)c(Oc2ccc(C(F)(F)F)cc2)c1F)[C@@H]1CCCN1S(=O)(=O)c1ccc(Cl)s1` [Example 27, (2S)-1-(5-chlorothiophene-2-sulfonyl)-N-({2,4-difluoro-3-[4-(trifluoro-methyl)phenoxy]phenyl}methyl)pyrrolidine-2-carboxamide]: the IC50 turned out to be 220 nM.

For the compound `O=C(NCc1c(F)ccc(Oc2ccc(C(F)(F)F)cc2)c1Cl)[C@@H]1CCCN1S(=O)(=O)c1ccc(Cl)s1` [Example 28, (2S)-N-({2-chloro-6-fluoro-3-[4-(trifluoromethyl)phenoxy]phenyl}methyl)-1-(5-chlorothiophene-2-sulfonyl)pyrrolidine-2-carboxamide], the IC50 is 1900 nM.

With `O=C(NCc1ccc(Oc2cccc(C(F)(F)F)c2)cc1)[C@@H]1C=CCN1S(=O)(=O)c1ccc(Cl)s1` [Example 29, (2S)-1-(5-chlorothiophene-2-sulfonyl)-N-({4-[3-(trifluoromethyl)phenoxy]phenyl}methyl)-2,5-dihydropyrrole-2-carboxamide], the IC50 stood at 140 nM.

Consider `O=C(NCc1ccc(Oc2cccc(C(F)(F)F)c2)cc1)[C@@H]1CCCN1S(=O)(=O)c1ccc(F)cc1` [Example 30, (2S)-1-(4-fluorophenyl)sulfonyl-N-({4-[3-(trifluoro-methyl)phenoxy]phenyl}methyl)pyrrolidine-2-carboxamide], for which the IC50 was found to be 230 nM.

On to `O=C(NCc1ccc(Oc2cccc(C(F)(F)F)c2)cc1)[C@@H]1CCN1S(=O)(=O)c1ccc(Cl)s1` [Example 31, (2S)-1-(5-chlorothiophene-2-sulfonyl)-N-({4-[3-(trifluoro-methyl)phenoxy]phenyl}methyl)azetidine-2-carboxamide], for which the IC50 was 900 nM.

`O=C(NCc1cccc(Oc2ccc(C(F)(F)F)cc2)c1)[C@@H]1C=CCN1S(=O)(=O)c1ccc(Cl)s1` [Example 32, (2S)-1-(5-chlorothiophene-2-sulfonyl)-N-({3-[4-(trifluoro-methyl)phenoxy]phenyl}methyl)-2,5-dihydropyrrole-2-carboxamide]: the IC50 amounted to 19 nM.

Consider `O=C(NCc1cccc(Oc2ccc(C(F)(F)F)cc2)c1)[C@@H]1CCCN1S(=O)(=O)c1ccc(F)cc1` [Example 33, (2S)-1-(4-fluorophenyl)sulfonyl-N-({3-[4-(trifluoro-methyl)phenoxy]phenyl}methyl)pyrrolidine-2-carboxamide], for which the IC50 is 56 nM.

In the case of `O=C(NCc1cccc(Oc2ccc(C(F)(F)F)cc2)c1)[C@@H]1CCN1S(=O)(=O)c1ccc(Cl)s1` [Example 34, (2S)-1-(5-chlorothiophene-2-sulfonyl)-N-({3-[4-(trifluoro-methyl)phenoxy]phenyl}methyl)azetidine-2-carboxamide], the IC50 was found to be 150 nM.

Regarding `O=C(NCc1cccc(Oc2ccc(C(F)(F)F)cc2)c1)C1COCCN1S(=O)(=O)c1ccc(Cl)s1` (centres unmarked) [Example 35, 4-(5-chlorothiophene-2-sulfonyl)-N-({3-[4-(trifluoro-methyl)phenoxy]phenyl}methyl)morpholine-3-carboxamide], the IC50 was found to be 810 nM.

With `O=C(NCc1cccc(Oc2ccc(C(F)(F)F)cc2)c1)[C@@H]1C=CCN1S(=O)(=O)c1ccc(F)cc1` [Example 36, (2S)-1-(4-fluorophenyl)sulfonyl-N-({3-[4-(trifluoromethyl)phenoxy]phenyl}methyl)-2,5-dihydropyrrole-2-carboxamide], the IC50 is 28 nM.

With `O=C(NCc1cccc(Oc2ccc(C(F)(F)F)cc2)c1)[C@@H]1CCN1S(=O)(=O)c1ccc(F)cc1` [Example 37, (2S)-1-(4-fluorophenyl)sulfonyl-N-({3-[4-(trifluoro-methyl)phenoxy]phenyl}methyl)azetidine-2-carboxamide], the IC50 stood at 160 nM.

Take `O=C(NCc1cccc(Oc2ccc(C(F)(F)F)cc2)c1)[C@@H]1CCCN1S(=O)(=O)c1ccc(Cl)cc1` [Example 38, (2S)-1-(4-chlorophenyl)sulfonyl-N-({3-[4-(trifluoro-methyl)phenoxy]phenyl}methyl)pyrrolidine-2-carboxamide]: the IC50 was found to be 76 nM.

As for `O=C(NCc1ccnc(Oc2ccc(C(F)(F)F)cc2)c1)[C@@H]1CCCN1S(=O)(=O)c1ccc(Cl)s1` [Example 39, (2S)-1-(5-chlorothiophene-2-sulfonyl)-N-({2-[4-(trifluoro-methyl)phenoxy]-4-pyridyl}methyl)pyrrolidine-2-carboxamide], the IC50 amounted to 64 nM.

For the compound `O=C(NCc1cc(Oc2ccc(C(F)(F)F)cc2)ccn1)[C@@H]1CCCN1S(=O)(=O)c1ccc(Cl)s1` [Example 40, (2S)-1-(5-chlorothiophene-2-sulfonyl)-N-({4-[4-(trifluoro-methyl)phenoxy]-2-pyridyl}methyl)pyrrolidine-2-carboxamide], the IC50 amounted to 66 nM.

For the compound `O=C(NCc1ccc(COc2ccccc2)cc1)[C@@H]1CCCN1S(=O)(=O)c1ccc(Cl)s1` [Example 41, (2S)-1-(5-chlorothiophene-2-sulfonyl)-N-{[4-(phenoxymethyl)phenyl]methyl}pyrrolidine-2-carboxamide], the IC50 was found to be 310 nM.

Regarding `O=C(NCc1ccc(COc2ccc(C(F)(F)F)cc2)cc1)[C@@H]1CCCN1S(=O)(=O)c1ccc(Cl)s1` [Example 42, (2S)-1-(5-chlorothiophene-2-sulfonyl)-N-((4-{[4-(trifluoro-methyl)phenoxy]methyl}phenyl)methyl)pyrrolidine-2-carboxamide], the IC50 was determined as 227 nM.

Regarding `O=C(NCc1ccc(COc2ccc(OC(F)(F)F)cc2)cc1)[C@@H]1CCCN1S(=O)(=O)c1ccc(Cl)s1` [Example 43, (2S)-1-(5-chlorothiophene-2-sulfonyl)-N-((4-{[4-(trifluoro-methoxy)phenoxy]methyl}phenyl)methyl)pyrrolidine-2-carboxamide], the IC50 came out at 380 nM.

For the compound `Cc1ccc(OCc2ccc(CNC(=O)[C@@H]3CCCN3S(=O)(=O)c3ccc(Cl)s3)cc2)cc1` [Example 44, (2S)-1-(5-chlorothiophene-2-sulfonyl)-N-({4-[(4-methyl-phenoxy)methyl]phenyl}methyl)pyrrolidine-2-carboxamide], the IC50 came to 670 nM.
